This experiment has as its target T1, human Nav1.8 channels (Homo sapiens, UniProt Q9Y5Y9).
T1 construct: expressed in transfected cells
In words: Nav1.8 Qube automated patch-clamp assay. Type of experiment: cell-based. As to conditions: human Nav1.8 stably expressed in HEK 293 cells; whole-cell voltage clamp, room temperature; resting or inactivated state not specified; read-out: IC50 values (nM) for Examples in the Nav1.8 Qube Assay. An outline of the steps: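 Whole-cell patch clamp at room temperature on HEK293 cells stably expressing human Nav1.8. A 1 Hz train of ten 20 ms pulses to 10 mV from −90 mV holding, with −67 mV repolarization, was applied; first- and tenth-pulse peak currents gave resting and inactivated-state IC50s by Hill fitting.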
(In patch-clamp work, channel activity is measured electrically.)
T1 sequence (Q9Y5Y9 whole entry): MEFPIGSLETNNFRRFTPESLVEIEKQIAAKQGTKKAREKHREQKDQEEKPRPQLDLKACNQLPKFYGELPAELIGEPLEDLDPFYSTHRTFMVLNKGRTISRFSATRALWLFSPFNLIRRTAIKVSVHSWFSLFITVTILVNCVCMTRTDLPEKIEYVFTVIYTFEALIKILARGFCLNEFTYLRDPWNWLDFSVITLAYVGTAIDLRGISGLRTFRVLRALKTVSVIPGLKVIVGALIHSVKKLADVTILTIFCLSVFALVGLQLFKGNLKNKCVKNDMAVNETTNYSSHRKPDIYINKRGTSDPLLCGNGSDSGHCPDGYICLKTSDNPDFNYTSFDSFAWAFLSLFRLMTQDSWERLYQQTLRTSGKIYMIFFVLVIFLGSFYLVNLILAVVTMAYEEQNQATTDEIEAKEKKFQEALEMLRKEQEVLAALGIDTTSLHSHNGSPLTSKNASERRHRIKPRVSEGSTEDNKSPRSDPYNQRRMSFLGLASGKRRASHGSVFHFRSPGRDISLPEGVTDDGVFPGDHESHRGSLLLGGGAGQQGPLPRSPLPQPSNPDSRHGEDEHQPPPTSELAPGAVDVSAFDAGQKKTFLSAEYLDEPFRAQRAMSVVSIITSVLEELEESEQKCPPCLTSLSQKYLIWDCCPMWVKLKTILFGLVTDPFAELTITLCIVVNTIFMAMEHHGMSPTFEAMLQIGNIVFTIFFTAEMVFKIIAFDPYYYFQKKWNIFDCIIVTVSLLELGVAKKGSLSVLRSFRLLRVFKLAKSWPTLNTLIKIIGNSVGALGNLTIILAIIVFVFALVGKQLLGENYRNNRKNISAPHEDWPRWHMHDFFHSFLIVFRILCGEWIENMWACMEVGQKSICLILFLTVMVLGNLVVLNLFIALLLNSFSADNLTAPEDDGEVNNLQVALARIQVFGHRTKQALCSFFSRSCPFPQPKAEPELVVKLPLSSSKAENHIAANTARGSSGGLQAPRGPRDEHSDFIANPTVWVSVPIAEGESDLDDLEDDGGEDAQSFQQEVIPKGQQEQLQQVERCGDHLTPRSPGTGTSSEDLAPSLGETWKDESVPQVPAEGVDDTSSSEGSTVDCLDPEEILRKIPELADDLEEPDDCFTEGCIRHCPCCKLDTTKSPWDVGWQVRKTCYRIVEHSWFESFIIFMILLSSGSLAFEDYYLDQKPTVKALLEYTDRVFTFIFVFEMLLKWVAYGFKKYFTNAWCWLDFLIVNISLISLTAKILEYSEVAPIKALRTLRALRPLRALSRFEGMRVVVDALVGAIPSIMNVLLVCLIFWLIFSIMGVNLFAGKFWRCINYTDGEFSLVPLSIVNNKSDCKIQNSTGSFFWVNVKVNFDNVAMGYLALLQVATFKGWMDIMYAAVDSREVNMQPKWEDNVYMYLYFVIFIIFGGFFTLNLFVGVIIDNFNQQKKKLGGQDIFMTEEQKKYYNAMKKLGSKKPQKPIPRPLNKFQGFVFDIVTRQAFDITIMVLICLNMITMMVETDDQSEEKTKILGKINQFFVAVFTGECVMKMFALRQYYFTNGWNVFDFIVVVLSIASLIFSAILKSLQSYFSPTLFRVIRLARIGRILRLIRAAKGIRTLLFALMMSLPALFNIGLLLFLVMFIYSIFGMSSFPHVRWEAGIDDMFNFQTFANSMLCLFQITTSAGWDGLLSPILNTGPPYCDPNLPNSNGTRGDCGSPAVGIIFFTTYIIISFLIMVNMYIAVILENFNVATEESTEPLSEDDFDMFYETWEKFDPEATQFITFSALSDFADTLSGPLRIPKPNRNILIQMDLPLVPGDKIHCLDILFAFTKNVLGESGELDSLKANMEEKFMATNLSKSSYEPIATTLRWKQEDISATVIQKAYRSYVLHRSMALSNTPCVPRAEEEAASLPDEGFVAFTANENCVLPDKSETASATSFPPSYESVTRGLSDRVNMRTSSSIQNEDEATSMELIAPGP
By IC50 is commonly meant the point on the concentration scale where inhibition reaches its midpoint. With `CS(=O)(=O)c1cncc(NC(=O)c2cc(C(F)(F)F)cnc2N2CCCCCC2)c1` [Example 6, 2-(azepan-1-yl)-N-(5-(methylsulfonyl)pyridin-3-yl)-5-(trifluoromethyl)nicotinamide], the IC50 came out at 355 nM.
As for `COc1ccnc(N2CCC(F)(F)CC2)c1C(=O)Nc1ccnc(S(N)(=O)=O)c1` [Example 159, 2-(4,4-difluoropiperidin-1-yl)-4-methoxy-N-(2-sulfamoylpyridin-4-yl)nicotinamide], the IC50 was 1630 nM.
The figure for `NS(=O)(=O)c1cc(NC(=O)c2cc(C(F)(F)F)cnc2N2CCN(CC(F)(F)F)CC2)ccn1` [Example 100, N-(2-sulfamoyl-4-pyridyl)-2-[4-(2,2,2-trifluoroethyl)piperazin-1-yl]-5-(trifluoromethyl)pyridine-3-carboxamide] is 4630 nM; for `Cc1nc(N2CCCCC2)c(C(=O)Nc2cncc(S(N)(=O)=O)c2)c(C)c1Cl` [Example 191, 5-chloro-4,6-dimethyl-2-(1-piperidyl)-N-(5-sulfamoyl-3-pyridyl)pyridine-3-carboxamide] it is 124 nM.
The figure for `CC1CCN(c2ncc(C(F)(F)F)cc2C(=O)Nc2ccnc(S(N)(=O)=O)c2)CCC1(F)F` (stereo not shown) [Example 115, 2-(4,4-difluoro-5-methylazepan-1-yl)-N-(2-sulfamoylpyridin-4-yl)-5-(trifluoromethyl)pyridine-3-carboxamide] is 1.6 nM; for `NS(=O)(=O)c1cc(NC(=O)c2cc(C(F)(F)F)cnc2N2C[C@@H]3[C@H](C2)C(F)(F)C3(F)F)ccn1` [Example 60, N-(2-sulfamoylpyridin-4-yl)-2-((1R,5S)-6,6,7,7-tetrafluoro-3-azabicyclo[3.2.0]heptan-3-yl)-5-(trifluoromethyl)nicotinamide] it is 14 nM.
Regarding `Cc1nc(N2CCCC(F)(F)CC2)c(C(=O)N(C)c2ccnc(S(N)(=O)=O)c2)c(C)c1Cl` [Example 214, 5-chloro-2-(4,4-difluoroazepan-1-yl)-N,4,6-trimethyl-N-(2-sulfamoylpyridin-4-yl)nicotinamide], the IC50 stood at 347 nM.
The same measure for `NS(=O)(=O)c1cc(NC(=O)c2cc(C(F)(F)F)cnc2N2CCOC(C(F)(F)F)CC2)ccn1` (single isomer, unassigned) [Example 119, (S or R)-N-(2-sulfamoylpyridin-4-yl)-5-(trifluoromethyl)-2-(7-(trifluoromethyl)-1,4-oxazepan-4-yl)nicotinamide]: 30 nM.
Take `Cc1cc(Cl)nc(N2CCC(F)(F)CC2)c1C(=O)Nc1ccnc(S(N)(=O)=O)c1` [Example 170, 6-chloro-2-(4,4-difluoropiperidin-1-yl)-4-methyl-N-(2-sulfamoylpyridin-4-yl)nicotinamide]: the concentration for half-maximal inhibition (IC50) was 24 nM.
The same measure for `NS(=O)(=O)c1cc(NC(=O)c2cc(OC(F)F)cnc2N2CCCC(F)(F)CC2)ccn1` [Example 171, 2-(4,4-difluoroazepan-1-yl)-5-(difluoromethoxy)-N-(2-sulfamoylpyridin-4-yl)nicotinamide]: 9.2 nM; for `O=C(Nc1ccc2ncc(Br)n2c1)c1cc(C(F)(F)F)cnc1N1CCCCCC1` [Example 199, 2-(azepan-1-yl)-N-(3-bromoimidazo[1,2-a]pyridin-6-yl)-5-(trifluoromethyl)-pyridine-3-carboxamide]: 5070 nM; for `O=C(O)c1ccc(NC(=O)c2cc(C(F)(F)F)cnc2N2CCC(F)(F)CC2)cn1` [Example 3, 5-(2-(4,4-difluoropiperidin-1-yl)-5-(trifluoromethyl)nicotinamido)picolinic acid]: 2380 nM.
The same measure for `C[C@@H]1CN(c2ncc(C(F)(F)F)cc2C(=O)Nc2ccnc(S(N)(=O)=O)c2)C[C@H](C)[C@]1(C)O` [Example 75, 2-((3R,4s,5S)-4-hydroxy-3,4,5-trimethylpiperidin-1-yl)-N-(2-sulfamoylpyridin-4-yl)-5-(trifluoromethyl)nicotinamide]: 233 nM.

The values are drawn from US20210387966A1, “2-AMINO-N-HETEROARYL-NICOTINAMIDES AS NAV1.8 INHIBITORS” (Merck Sharp & Dohme Corp., priority 2018, published 2021).
